The results in this text go back to ChEMBL document CHEMBL4004864, “Synthetic analogs of rhamnolipids modulate structured biofilms formed by rhamnolipid-nonproducing mutant of Pseudomonas aeruginosa” (Bioorg Med Chem, 2017).

Calls of active or inactive are those of the source. The calls are words filed in the database; no cut-off is given here.

For orientation: inhibition means the drop in the measured response relative to a control, in per cent.

The test system of data set [1] is Pseudomonas aeruginosa. Briefly: Effect on biofilm formation in Pseudomonas aeruginosa PW6886 harboring rhlA-E08::ISphoA/hah mutant at 10 to 340 uM after 24 hrs under non-shaking condition by crystal-violet staining based assay. The format is functional.
Data set [2] has as its system Pseudomonas aeruginosa. Briefly: Antibiofilm activity against Pseudomonas aeruginosa PW6886 harboring rhlA-E08::ISphoA/hah mutant preformed biofilms assessed as reduction in biofilm bacterial count at 20 to 340 uM preincubated for 24 hrs under non-shaking condition followed by second incubation for 1 hr after compound washout and subsequent compound addition and measured after 1 hr incubation under non-shaking condition by crystal-violet staining based assay. It is filed as functional.

The test system of data set [3] is Pseudomonas aeruginosa. Briefly: Induction of swarming motility of Pseudomonas aeruginosa PW6886 harboring rhlA-E08::ISphoA/hah mutant at 5 to 100 uM after 24 hrs. It is filed as functional.
Data set [4] relates to Pseudomonas aeruginosa. Briefly: Induction of swarming motility of wild-type Pseudomonas aeruginosa PAO1 at 5 to 100 uM after 24 hrs. The format is functional.
In data set [5] the test system is Pseudomonas aeruginosa. Briefly: Induction of biofilm formation in Pseudomonas aeruginosa PW6886 harboring rhlA-E08::ISphoA/hah mutant expressing EGFP at 20 to 340 uM after 48 hrs under shaking condition by confocal laser scanning microscopy. It is filed as functional.
Data set [6] has as its system Pseudomonas aeruginosa. Briefly: Inhibition of biofilm formation in Pseudomonas aeruginosa PW6886 harboring rhlA-E08::ISphoA/hah mutant expressing EGFP at 20 to 340 uM after 48 hrs under shaking condition by confocal laser scanning microscopy. The format is functional.
The subject of data set [7] is Pseudomonas aeruginosa. Briefly: Bactericidal activity against Pseudomonas aeruginosa PW6886 harboring rhlA-E08::ISphoA/hah mutant at 20 to 340 uM under shaking condition.
Data set [8] concerns Pseudomonas aeruginosa. Briefly: Induction of biofilm formation in Pseudomonas aeruginosa PW6886 harboring rhlA-E08::ISphoA/hah mutant at 20 to 170 uM after 24 hrs under non-shaking condition by crystal-violet staining based assay. It is filed as functional.
For data set [9], the system named is Pseudomonas aeruginosa. Briefly: Antibiofilm activity against Pseudomonas aeruginosa PW6886 harboring rhlA-E08::ISphoA/hah mutant preformed biofilms assessed as reduction in biofilm bacterial count at 20 to 40 uM preincubated for 24 hrs under non-shaking condition followed by second incubation for 1 hr after compound washout and subsequent compound addition and measured after 1 hr incubation under non-shaking condition by crystal-violet staining based assay. It is filed as functional.

Data set [10] deals with Pseudomonas aeruginosa. Briefly: Induction of structured biofilm formation in eGFP-fused Pseudomonas aeruginosa PW6886 harboring rhlA-E08::ISphoA/hah mutant at 20 uM after 24 hrs under shaking condition by confocal laser scanning microscopy. It is filed as functional.
Data set [11] concerns Pseudomonas aeruginosa. Briefly: Inhibition of biofilm formation in eGFP-fused Pseudomonas aeruginosa PW6886 harboring rhlA-E08::ISphoA/hah mutant at 340 uM after 24 hrs under shaking condition by confocal laser scanning microscopy. The format is functional.
Data set [12] has as its system Pseudomonas aeruginosa. Briefly: Induction of biofilm formation in eGFP-fused Pseudomonas aeruginosa PW6886 harboring rhlA-E08::ISphoA/hah mutant at 20 uM after 48 hrs under shaking condition by confocal laser scanning microscopy. The format is functional.
Data set [13] relates to Pseudomonas aeruginosa. Briefly: Inhibition of biofilm formation in eGFP-fused Pseudomonas aeruginosa PW6886 harboring rhlA-E08::ISphoA/hah mutant at 340 uM after 48 hrs under shaking condition by confocal laser scanning microscopy. The format is functional.
For data set [14], the system named is Pseudomonas aeruginosa. Briefly: Induction of biofilm formation in eGFP-fused Pseudomonas aeruginosa PW6886 harboring rhlA-E08::ISphoA/hah mutant at 20 to 40 uM by COMSTAT based quantification relative to control. The format is functional.
The test system of data set [15] is Pseudomonas aeruginosa. Briefly: Inhibition of biofilm formation in eGFP-fused Pseudomonas aeruginosa PW6886 harboring rhlA-E08::ISphoA/hah mutant at 340 uM by COMSTAT based quantification relative to control. It is filed as functional.
Data set [16] has as its system Pseudomonas aeruginosa. Briefly: Induction of biofilm formation in Pseudomonas aeruginosa PW6886 harboring rhlA-E08::ISphoA/hah mutant expressing EGFP at 40 uM after 24 hrs under non-shaking condition by confocal laser scanning microscopy. It is filed as functional.
Data set [17] concerns Pseudomonas aeruginosa. Briefly: Antibiofilm activity against Pseudomonas aeruginosa PW6886 harboring rhlA-E08::ISphoA/hah mutant preformed biofilms assessed as reduction in biofilm bacterial count at 340 uM preincubated for 24 hrs under non-shaking condition followed by second incubation for 1 hr after compound washout and subsequent compound addition and measured after 1 hr incubation under non-shaking condition by crystal-violet staining based assay. The format is functional.

Data set [18] relates to Pseudomonas aeruginosa. Briefly: Induction of tendril formation in Pseudomonas aeruginosa PW6886 harboring rhlA-E08::ISphoA/hah mutant at 5 to 100 uM after 24 hrs. It is filed as functional.
For data set [19], the system named is Pseudomonas aeruginosa. Briefly: Induction of swarming motility of wild-type Pseudomonas aeruginosa PAO1 at 50 uM after 24 hrs. It is filed as functional.
Data set [20] deals with Pseudomonas aeruginosa. Briefly: Induction of tendril formation in Pseudomonas aeruginosa PAO1 at > 85 uM after 24 hrs. It is filed as functional.
Data set [21] deals with Pseudomonas aeruginosa. Briefly: Inhibition of biofilm formation in Pseudomonas aeruginosa PW6886 harboring rhlA-E08::ISphoA/hah mutant at 340 uM under non-shaking condition after 24 hrs by crystal-violet staining based assay. The format is functional.
The test system of data set [22] is Pseudomonas aeruginosa. Briefly: Induction of biofilm formation in Pseudomonas aeruginosa PW6886 harboring rhlA-E08::ISphoA/hah mutant expressing EGFP assessed as reduction in exopolymers covering the bottom of well at 20 to 85 uM after 24 hrs under shaking condition by confocal laser scanning microscopy. It is filed as functional.

Consider `CCCOCCCCCCCCO[C@@H]1O[C@H](CO)[C@@H](O[C@H]2O[C@H](CO)[C@@H](O)[C@H](O)[C@H]2O)[C@H](O)[C@H]1O`, for which the outcome with Pseudomonas aeruginosa [1], with Pseudomonas aeruginosa [2], with Pseudomonas aeruginosa [3], in the data set on Pseudomonas aeruginosa [4] and with Pseudomonas aeruginosa [5] was inactive. The inhibition entry in the data set on Pseudomonas aeruginosa [6] is “inactive”.

For the compound `CCCCCCOCCCCCO[C@@H]1O[C@H](CO)[C@@H](O[C@H]2O[C@H](CO)[C@@H](O)[C@H](O)[C@H]2O)[C@H](O)[C@H]1O`, the outcome in the data set on Pseudomonas aeruginosa [1], in the data set on Pseudomonas aeruginosa [2], with Pseudomonas aeruginosa [3], in the data set on Pseudomonas aeruginosa [4] and with Pseudomonas aeruginosa [5] was inactive. In addition, the Activity entry in the data set with Pseudomonas aeruginosa [7] is listed as “Non-Toxic”. In the data set with Pseudomonas aeruginosa [6], the inhibition result is “inactive”.

`O=C(c1ccccc1)c1ccc(COCCCCCCCCCCO[C@@H]2O[C@H](CO)[C@@H](O[C@H]3O[C@H](CO)[C@@H](O)[C@H](O)[C@H]3O)[C@H](O)[C@H]2O)cc1`: the outcome in the data set with Pseudomonas aeruginosa [8], in the data set with Pseudomonas aeruginosa [10], in the data set on Pseudomonas aeruginosa [12], in the data set on Pseudomonas aeruginosa [16] and in the data set on Pseudomonas aeruginosa [17] was Active. Further, the result with Pseudomonas aeruginosa [9] was inactive. The Activity entry in the data set with Pseudomonas aeruginosa [7] is recorded as “Non-Toxic”; in the data set with Pseudomonas aeruginosa [14], 10 - 60%. In addition, the inhibition entry in the data set on Pseudomonas aeruginosa [11] and with Pseudomonas aeruginosa [13] was “Active” in each case. In the data set with Pseudomonas aeruginosa [15], this compound had an inhibition at 340 µM of 80%.

With `CCCCCCCCCCCCO[C@@H]1O[C@H](CO)[C@@H](O[C@H]2O[C@H](CO)[C@@H](O)[C@H](O)[C@H]2O)[C@H](O)[C@H]1O`, the outcome in the data set on Pseudomonas aeruginosa [8], in the data set on Pseudomonas aeruginosa [3], in the data set with Pseudomonas aeruginosa [18], with Pseudomonas aeruginosa [19], in the data set with Pseudomonas aeruginosa [20] and in the data set with Pseudomonas aeruginosa [10] was Active. In the data set with Pseudomonas aeruginosa [17], the result was Active. For the same compound, the outcome in the data set with Pseudomonas aeruginosa [9] and in the data set with Pseudomonas aeruginosa [12] was inactive. Besides, the results for the Activity entry in the data set on Pseudomonas aeruginosa [7] and in the data set with Pseudomonas aeruginosa [14] were “Non-Toxic” and 10 - 60%, respectively. The inhibition entry with Pseudomonas aeruginosa [11] was “Active”. Besides, the inhibition entry in the data set on Pseudomonas aeruginosa [13] is “inactive”. This compound showed an inhibition at 340 µM with Pseudomonas aeruginosa [15] of 80%.

On to `CC(C)CCCC(C)CCCC(C)CCO[C@@H]1O[C@H](CO)[C@@H](O[C@@H]2O[C@H](CO)[C@@H](O)[C@H](O)[C@H]2O)[C@H](O)[C@H]1O` (some centres not stated), for which the outcome with Pseudomonas aeruginosa [8], in the data set with Pseudomonas aeruginosa [10], in the data set with Pseudomonas aeruginosa [12], in the data set with Pseudomonas aeruginosa [16] and with Pseudomonas aeruginosa [17] was Active. Further, the inhibition result with Pseudomonas aeruginosa [21], in the data set with Pseudomonas aeruginosa [11] and in the data set with Pseudomonas aeruginosa [13] was “Active” in each case. Also, in the data set on Pseudomonas aeruginosa [9], the result was inactive. For the same compound, in the data set on Pseudomonas aeruginosa [14], the Activity is given as 10 - 60%. Moreover, the inhibition at 340 µM with Pseudomonas aeruginosa [15] stood at 80%.

On to `CC(C)CCCC(C)CCCC(C)CCO[C@@H]1O[C@H](CO)[C@@H](O[C@H]2O[C@H](CO)[C@@H](O)[C@H](O)[C@H]2O)[C@H](O)[C@H]1O` (some centres not stated), for which the result in the data set on Pseudomonas aeruginosa [8], in the data set with Pseudomonas aeruginosa [10], in the data set on Pseudomonas aeruginosa [12], in the data set on Pseudomonas aeruginosa [22], with Pseudomonas aeruginosa [16] and in the data set with Pseudomonas aeruginosa [17] was Active. In addition, the inhibition result with Pseudomonas aeruginosa [21], with Pseudomonas aeruginosa [11] and in the data set on Pseudomonas aeruginosa [13] was “Active” each time. Besides, the result in the data set on Pseudomonas aeruginosa [9] was inactive. For the same compound, the results for the Activity result with Pseudomonas aeruginosa [7] and in the data set with Pseudomonas aeruginosa [14] were “Non-Toxic” and 10 - 60%, respectively. The same compound yielded an inhibition at 340 µM in the data set on Pseudomonas aeruginosa [15] of 80%.
